Test results as given in PMC12812009, “Optimization of 4‐Amino‐2‐Pyridone Inhibitors of Proprotein Convertase Subtilisin/Kexin Type 9: Integrating Structure–Activity and Structure–Metabolism Relationships” (Chemmedchem, 2025).
Like-named read-outs stand apart in the source and are kept apart here.

How the values were obtained:
[1] = MTT cell viability assay in HepG2 cell cultures; format: cell-based, human; details: human, HepG2 cells, MTT
Protocol: The approach we set‐up to test the new PCSK9i was based on functional assay, which evaluated at the same time compounds cytotoxicity, and their effect on the secreted PCSK9 on the same cell line. First, cell viability was evaluated in HepG2 cell cultures using the MTT assay (CC50 values are reported in Table 1 and Figure 5 ) after 24 h of incubation in starving conditions (0.4% fetal bovine serum (FBS)). The low FBS concentration, and thus low extracellular lipoproteins, stimulates the sterol responsive element binding protein (SREBP) pathway, inducing the expression of LDLR, PCSK9, HMG‐CoA reductase,^[ [28] ^] thus increasing the uptake of exogenous cholesterol and enhancing the synthesis of endogenous cholesterol. This first step allowed us to calculate the CC50 and identify the noncytotoxic concentrations (viability higher than 90%; Table 1), then tested for PCSK9 inhibitory activity.
Cell viability was assessed using the MTT assay. Cells were seeded in 96‐well plates (2.5 × 10^4 cells/well) in MEM supplemented with 10% v/v FBS and incubated for 24 h. The cells were then treated with the synthesized compounds dissolved in DMSO at increasing concentrations (from 0.5 to 50 µM) in MEM supplemented with 0.4% v/v FBS for 24 h. Simvastatin [20 and 40 µM] and BBR [10 µM] (both from Merck, St. Louis, Missouri, USA) were used as internal controls as PCSK9 inducer and inhibitor, respectively.^[ [21] ^, [34] ^, [35] ^] The cells were then incubated for 2 h with a solution of MTT [1 mg mL^–1] in MEM supplemented with 0.4% v/v FBS, away from light sources. The supernatant was then collected and 200 µL of DMSO was added to each well to solubilize the newly formed formazan. Finally, an aliquot of 100 µL was taken to measure the absorbance at a wavelength of 570 nm using an absorbance microplate reader (Spark Tecan, Switzerland). Every experimental condition was run in duplicate and the average cell viability and standard deviation was calculated. Cell viability was expressed as the percentage of treated cells compared to untreated (basal) cells. CC50 values for each compound were calculated by interpolating the percentage of cell viability through nonlinear regression analysis of the log (inhibition) versus response using GraphPad Prism software version 8.0 (GraphPad Software Inc., La Jolla, CA).

PCSK9 mRNA = PCSK9 mRNA expression in HepG2 cells by RTqPCR; format: cell-based, human; details: 24 h incubation, increasing concentrations
Protocol: To further investigate the mechanism of action of these compounds, we evaluated the PCSK9 mRNA levels after 24 h incubation with increasing concentrations of 5c, 6b, and 7.
Total RNA was extracted using the iScript RT‐qPCR Sample Prep reagent (Bio‐Rad), according to the manufacturer's instructions. QuantiNova SYBR Green RT‐PCR Kit (QIAGEN, Hilden, Germany) was used for qPCR, along with specific primers for 18S (FWD 5′‐[…]‐3′, REV 5′‐[…]‐3′) PCSK9 (FWD 5′‐CCTGCGCGTGCTCAACT‐3′, REV 5′‐[…]‐3′). The analyses were performed with the CFX96 Touch Real‐Time PCR Detection System (Bio‐Rad) with cycling conditions of 45 °C for 10 min, 95 °C for 5 min, and a repetition of 40 cycles at 95 °C for 5 s followed by 30 s at 60 °C. The data were expressed as Ct values and used for relative quantification of targets with ΔΔCt calculations. The ΔΔCt values were determined by multiplying the ratio value between the efficiency of specific primers and housekeeping 18S. The efficiency was calculated as ((10(‐1/slope))−1) × 100.

[2] = In vitro metabolic stability with mouse liver microsomes; format: in vitro ADME; details: for metabolic stability (in words): MLM + NADPH-generating system; for metabolic stability/PCSK9 IC50 ratio (in words): with respect to 5c
Protocol: All newly synthesized LSF derivatives of 5c were biologically evaluated to determine whether the introduced modifications influenced both metabolic stability and anti‐PCSK9 activity. Microsomal stability assays were conducted to assess the impact of LSF modifications on improving the stability of 5c. In these assays, LSF derivatives were incubated with mouse liver microsomes (MLM) and an NADPH‐generating system for 60 min, followed by HPLC analysis. Control samples included compounds and liver microsomes without the NADPH system, allowing for the assessment of nonspecific binding to microsomes. […] Acylated derivatives 12, 13, and 14 achieved stability levels exceeding 95%, as did the bicyclic derivative 7, which exemplifies a dual‐site functionalization.
MLM (pooled male) were obtained from Xenotech, LLC (Cambridge, Kansas City, USA). Glucose‐6‐phosphate (G6P), oxidized nicotinamide‐adenine‐dinucleotide phosphate (NADP^+), magnesium chloride (MgCl2), and glucose‐6‐phosphate‐dehydrogenase (G6PDH) were supplied by Sigma‐Aldrich (Milan, Italy). Metabolic stability assays were modified from Ferlenghi et al.^[ [33] ^] Briefly, samples were prepared in 100 mM phosphate buffered saline (PBS), pH 7.4, containing 1 mg ml^–1 MLM and a NADPH‐generating system (5 mM MgCl2, 10 mM glucose‐6‐phosphate, 2 mM NADP^+, 1.5 U ml^–1 of glucose‐6‐phosphate dehydrogenase). After incubation (37 °C, 5 min stirring), compounds stock solutions in DMSO were added to a final concentration of 10 µM. The final DMSO percentage in samples was kept at 0.5%. After 60 min, single aliquots of reaction mixture were withdrawn, added of two volumes of acetonitrile, centrifuged (10,000 g, 10 min) and the supernatant was analyzed by HPLC. The unspecific binding to MLM was evaluated by means of control samples in which the compounds were incubated in the absence of a NADPH generating system. The apparatus used for HPLC analysis was a Shimadzu instrument, with a reverse‐phase Nova‐Pak column (Waters) (C18 4 μm 3.9 × 150 mm, Waters). The mobile phase, pumped at a flow rate of 1.2 ml min^–1, consisted of water and acetonitrile in either a 50:50 (v/v) ratio (compounds 5c, 6a, 6b, 6c, 7, 8, 12, 13, 14, 17b) or a 40:60 (v/v) ratio (compounds 11 and 15) or a 30:70 (v/v) ratio (for compounds 17a, 18a, 18b). For compounds 9 and 10, a phosphate buffer (5.98 g L^–1 Na2HPO4, 0.19 g L^–1 KH2PO4, adjusted to pH 7.4 with 85% H3PO4 and supplemented with 1.4 mL L^–1 triethylamine; final pH: 8) and acetonitrile (50:50, v/v) were pumped at a flow rate of 2 mL min^–1. In all cases, column temperature was 35 °C, injection volume was 50 µl, and absorbance was monitored at 254 nm. Serial dilutions for the calibration curves were prepared in the interval 0.5–20 µM in either PBS:CH3CN or H2O:CH3CN mixture (50:50, v/v) for compounds 5c, 6a, 6b, 8, 9, 10, 11, 12, 13, 14, 15, 17a, 17b, 18a, 18b, and in acetonitrile for compounds 6c and 7.

[3] = printed in Figures 5 and 8, HepG2, 24 h, read-out: CC50

Compound	CC50 at 24 h ([1]; 24 h incubation, HepG2, 0.4% FBS, 0.5-50.0 μM, read-out: CC50 (CI 95%)) [µM]	PCSK9 mRNA expression (in words) (PCSK9 mRNA)	metabolic stability (in words) ([2]; 60 min)	metabolic stability/PCSK9 IC50 ratio (in words) [2]	CC50 at 24 h [1, 3] [µM]	metabolic stability, percentage of intact compound recovered relative to control ([2]; MLM 1 mg/ml + NADPH-generating system, 60 min, 10 µM, HPLC)
Cc1cc(NCc2ccc(C(F)(F)F)cc2)c(Br)c(=O)n1Cc1ccc(C(F)(F)F)cc1 [Compound 6b, 3‐Bromo‐6‐Methyl‐1‐(4‐(Trifluoromethyl)Benzyl)‐4‐((4‐(Trifluoromethyl)Benzyl)Amino)pyridin‐2(1H)‐One]	27	strongly suppressed the PCSK9 mRNA expression	greater stability compared to chlorinated 6a	higher metabolic stability/PCSK9 IC50 ratio	–	–
Cc1cc2c(sc(=N)n2Cc2ccc(C(F)(F)F)cc2)c(=O)n1Cc1ccc(C(F)(F)F)cc1 [Compound 7, 2‐Imino‐6‐Methyl‐1,5‐Bis(4‐(Trifluoromethyl)benzyl)‐1,2‐Dihydrothiazolo[5,4‐c]pyridin‐4(5H)‐One]	–	strongly suppressed the PCSK9 mRNA expression	–	higher metabolic stability/PCSK9 IC50 ratio	> 50	exceeding 95%
Cc1cc(NCc2ccc(C(F)(F)F)cc2)cc(=O)n1Cc1ccc(C(F)(F)F)cc1 [Compound 5c]	–	strongly suppressed the PCSK9 mRNA expression	suboptimal metabolic stability	–	32.4	–
